Experiment [1] deals with Acetylcholinesterase (Electrophorus electricus) (UniProt O42275). Description: Inhibition of electric eel AChE using acetylthiocholine iodide as substrate at 10 uM preincubated for 5 mins followed by substrate addition and measured after 5 mins by DTNB reagent based Ellman's method relative to control. As to conditions: time 10.0 min.
The target in experiment [2] is Cholinesterase (Equus caballus) (UniProt P81908). In words: Inhibition of equine serum BuChE using butyrylthiocholine iodide as substrate at 10 uM preincubated for 5 mins followed by substrate addition and measured after 5 mins by DTNB reagent based Ellman's method relative to control. To be noted: time 10.0 min.
Sequence of Cholinesterase (Equus caballus) (P81908 whole entry): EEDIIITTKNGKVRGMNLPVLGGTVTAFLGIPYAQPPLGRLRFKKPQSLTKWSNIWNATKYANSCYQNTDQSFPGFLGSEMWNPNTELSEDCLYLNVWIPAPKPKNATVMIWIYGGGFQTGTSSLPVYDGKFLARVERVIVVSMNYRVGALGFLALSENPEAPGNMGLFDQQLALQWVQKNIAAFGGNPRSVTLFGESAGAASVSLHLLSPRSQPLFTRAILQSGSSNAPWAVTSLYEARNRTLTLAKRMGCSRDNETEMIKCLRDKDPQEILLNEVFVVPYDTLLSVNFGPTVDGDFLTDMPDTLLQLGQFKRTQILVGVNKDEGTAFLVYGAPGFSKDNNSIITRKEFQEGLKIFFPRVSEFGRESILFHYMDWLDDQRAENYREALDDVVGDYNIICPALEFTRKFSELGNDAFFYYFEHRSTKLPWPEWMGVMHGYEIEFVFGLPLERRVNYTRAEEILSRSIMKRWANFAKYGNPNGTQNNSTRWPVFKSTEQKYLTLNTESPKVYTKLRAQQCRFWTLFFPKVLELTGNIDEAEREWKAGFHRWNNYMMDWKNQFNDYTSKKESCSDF
In experiment [3] the target is T1, Beta-secretase 1 (Homo sapiens, UniProt P56817).
T1 sequence (P56817 whole entry): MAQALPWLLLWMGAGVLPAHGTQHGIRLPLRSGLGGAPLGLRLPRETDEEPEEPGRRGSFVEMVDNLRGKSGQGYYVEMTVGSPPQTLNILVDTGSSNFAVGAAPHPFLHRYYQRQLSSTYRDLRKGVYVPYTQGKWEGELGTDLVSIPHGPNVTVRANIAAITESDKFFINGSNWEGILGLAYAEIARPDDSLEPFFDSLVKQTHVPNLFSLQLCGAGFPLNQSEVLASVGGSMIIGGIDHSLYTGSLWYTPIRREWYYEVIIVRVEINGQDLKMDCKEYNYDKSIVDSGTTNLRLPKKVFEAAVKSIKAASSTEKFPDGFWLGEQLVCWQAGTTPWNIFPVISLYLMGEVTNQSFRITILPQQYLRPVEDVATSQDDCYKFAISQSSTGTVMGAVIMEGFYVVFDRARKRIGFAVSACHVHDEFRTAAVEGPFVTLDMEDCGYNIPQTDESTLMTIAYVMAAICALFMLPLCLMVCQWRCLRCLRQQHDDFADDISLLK
The nature of experiment [4]: Inhibition of mouse GAT3 transfected in HEK293 cells assessed as reduction in [3H]-GABA uptake preincubated for 25 mins followed by [3H]-GABA addition and measured after 4 mins by liquid scintillation counting analysis. To be noted: for IC50: HEK293, read-out: pIC50 (converted). Type of experiment: cell-based.
The next experiment has as its target Cholinesterase (Equus caballus, UniProt P81908).
The next experiment has as its target T2, GABA transporter 4 (Mus musculus, UniProt P31650).
T2 sequence (P31650 whole entry): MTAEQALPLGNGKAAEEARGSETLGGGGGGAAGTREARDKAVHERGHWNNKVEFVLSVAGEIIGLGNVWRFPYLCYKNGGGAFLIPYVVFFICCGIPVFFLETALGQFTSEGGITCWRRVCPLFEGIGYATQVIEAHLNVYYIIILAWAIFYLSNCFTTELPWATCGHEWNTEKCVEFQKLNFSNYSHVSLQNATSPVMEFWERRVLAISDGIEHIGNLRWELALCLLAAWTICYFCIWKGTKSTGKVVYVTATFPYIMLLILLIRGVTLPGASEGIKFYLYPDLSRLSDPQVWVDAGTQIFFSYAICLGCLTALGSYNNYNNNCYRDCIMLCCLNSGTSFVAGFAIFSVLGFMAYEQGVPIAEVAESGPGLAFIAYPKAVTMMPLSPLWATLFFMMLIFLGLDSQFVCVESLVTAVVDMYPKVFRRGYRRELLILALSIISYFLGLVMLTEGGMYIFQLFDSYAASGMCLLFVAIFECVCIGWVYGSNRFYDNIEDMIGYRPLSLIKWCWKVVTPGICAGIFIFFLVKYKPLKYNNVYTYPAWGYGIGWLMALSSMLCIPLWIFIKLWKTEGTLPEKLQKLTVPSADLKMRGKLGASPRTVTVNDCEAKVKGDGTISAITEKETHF
Description: Inhibition of mouse GAT4 transfected in HEK293 cells assessed as reduction in [3H]-GABA uptake preincubated for 25 mins followed by [3H]-GABA addition and measured after 4 mins by liquid scintillation counting analysis. To be noted: read-out: pIC50 (converted). Type of experiment: cell-based.

The target in experiment [5] is T3, Sodium- and chloride-dependent GABA transporter 1 (Mus musculus, UniProt P31648). In words: Inhibition of mouse GAT1 transfected in HEK293 cells assessed as reduction in [3H]-GABA uptake preincubated for 25 mins followed by [3H]-GABA addition and measured after 4 mins by liquid scintillation counting analysis. Type of experiment: cell-based. To be noted: read-out: pIC50 (converted).

For a further experiment, the target named is T4, GABA transporter 2 (Mus musculus, UniProt P31651).
T4 sequence (P31651 whole entry): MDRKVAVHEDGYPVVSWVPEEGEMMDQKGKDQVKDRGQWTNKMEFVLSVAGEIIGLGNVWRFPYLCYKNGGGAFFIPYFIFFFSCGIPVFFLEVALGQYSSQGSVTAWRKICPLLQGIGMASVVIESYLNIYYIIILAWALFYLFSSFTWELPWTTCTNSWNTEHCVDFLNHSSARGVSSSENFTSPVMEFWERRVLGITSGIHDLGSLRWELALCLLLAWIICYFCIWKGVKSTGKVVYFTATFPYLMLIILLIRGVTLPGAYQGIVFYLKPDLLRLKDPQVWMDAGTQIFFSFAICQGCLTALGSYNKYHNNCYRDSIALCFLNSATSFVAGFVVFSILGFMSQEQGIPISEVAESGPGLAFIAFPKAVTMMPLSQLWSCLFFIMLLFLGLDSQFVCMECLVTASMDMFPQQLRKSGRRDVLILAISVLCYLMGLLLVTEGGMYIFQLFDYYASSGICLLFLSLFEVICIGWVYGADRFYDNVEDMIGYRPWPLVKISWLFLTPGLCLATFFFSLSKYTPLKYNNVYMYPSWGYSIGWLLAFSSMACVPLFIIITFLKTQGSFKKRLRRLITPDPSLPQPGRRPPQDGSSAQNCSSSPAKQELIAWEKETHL
In words: Inhibition of mouse GAT2 transfected in HEK293 cells assessed as reduction in [3H]-GABA uptake preincubated for 25 mins followed by [3H]-GABA addition and measured after 10 mins by liquid scintillation counting analysis. As to conditions: read-out: pIC50 (converted). Type of experiment: cell-based.

Experiment [6] has as its target T3, Sodium- and chloride-dependent GABA transporter 1. Description: Inhibition of NO 711 marker binding to mouse GAT1 by LC-ESI-MS/MS based competitive MS binding assay.
Experiment [7] has as its target T1, Beta-secretase 1. As to conditions: dose 50.0 µM, time 60.0 min.
For experiment [8], the target named is Sodium- and chloride-dependent GABA transporter 1 (Mus musculus) (UniProt P31648). In words: Inhibition of NO 711 marker binding to mouse GAT1 assessed as residual activity at 100 uM by LC-ESI-MS/MS based competitive MS binding assay relative to control.
The target in experiment [9] is Amyloid-beta precursor protein (Homo sapiens) (UniProt P05067). In words: Inhibition of amyloid beta40 (unknown origin) aggregation at 10 uM measured every 5 mins by ThT fluorescence based assay relative to control.
Sequence of Amyloid-beta precursor protein (Homo sapiens) (P05067 whole entry): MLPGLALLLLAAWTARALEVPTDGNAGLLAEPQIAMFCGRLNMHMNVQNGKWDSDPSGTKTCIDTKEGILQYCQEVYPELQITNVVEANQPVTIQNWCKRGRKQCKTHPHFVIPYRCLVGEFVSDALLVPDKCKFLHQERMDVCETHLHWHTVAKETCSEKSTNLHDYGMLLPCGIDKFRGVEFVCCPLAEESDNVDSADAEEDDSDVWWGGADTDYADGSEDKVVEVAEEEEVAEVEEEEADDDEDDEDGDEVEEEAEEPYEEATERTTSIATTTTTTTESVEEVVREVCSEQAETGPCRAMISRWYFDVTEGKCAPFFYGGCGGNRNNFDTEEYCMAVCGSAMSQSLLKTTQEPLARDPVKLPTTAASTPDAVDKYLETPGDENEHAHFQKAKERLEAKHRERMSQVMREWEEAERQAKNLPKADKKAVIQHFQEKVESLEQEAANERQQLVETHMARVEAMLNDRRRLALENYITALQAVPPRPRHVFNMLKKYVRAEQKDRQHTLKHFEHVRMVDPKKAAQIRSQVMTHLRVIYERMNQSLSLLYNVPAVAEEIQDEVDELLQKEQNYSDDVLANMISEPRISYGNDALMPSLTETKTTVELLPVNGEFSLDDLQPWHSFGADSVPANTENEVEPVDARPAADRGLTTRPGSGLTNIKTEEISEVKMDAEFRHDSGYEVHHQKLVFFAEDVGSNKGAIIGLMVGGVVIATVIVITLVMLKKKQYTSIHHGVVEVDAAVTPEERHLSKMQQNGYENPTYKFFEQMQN
The target is the same in experiment [10]. Description: Inhibition of amyloid beta42 (unknown origin) aggregation expressed in Escherichia coli BL21 (DE3) at 10 uM measured every 5 mins by ThT fluorescence based assay relative to control.

Sequence of Cholinesterase (P81908 whole entry): as the sequence (P81908 whole entry) above
Sequence of Acetylcholinesterase (Electrophorus electricus) (O42275 24-633 limits assumed): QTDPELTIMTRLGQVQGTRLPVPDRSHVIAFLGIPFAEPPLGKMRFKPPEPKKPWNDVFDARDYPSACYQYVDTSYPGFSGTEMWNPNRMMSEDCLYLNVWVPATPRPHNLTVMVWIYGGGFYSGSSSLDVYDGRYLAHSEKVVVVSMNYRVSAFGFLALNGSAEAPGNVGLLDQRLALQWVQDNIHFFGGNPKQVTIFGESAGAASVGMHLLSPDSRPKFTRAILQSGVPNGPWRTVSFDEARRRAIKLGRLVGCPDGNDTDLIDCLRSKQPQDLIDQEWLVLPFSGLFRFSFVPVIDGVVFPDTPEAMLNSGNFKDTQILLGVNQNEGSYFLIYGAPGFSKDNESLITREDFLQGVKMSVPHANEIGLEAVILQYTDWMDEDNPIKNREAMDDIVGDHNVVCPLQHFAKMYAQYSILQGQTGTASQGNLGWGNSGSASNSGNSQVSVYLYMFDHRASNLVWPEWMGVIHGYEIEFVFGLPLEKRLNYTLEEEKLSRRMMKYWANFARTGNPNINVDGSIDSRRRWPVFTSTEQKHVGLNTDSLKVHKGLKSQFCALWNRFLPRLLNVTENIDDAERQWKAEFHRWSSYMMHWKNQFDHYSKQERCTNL

For `CN(CCC=C1c2ccccc2-c2ccccc21)C(CCO)C(=O)NCc1ccc(Cl)cc1` (stereo not drawn), the inhibition in [1] was < 10%; in experiment [2] it was 46%. Moreover, the IC50 against Beta-secretase 1 [3] is 17.3 µM.
As for `Cc1ccc(CNC(=O)C(CCN)N(C)CCOCCN2c3ccccc3Sc3ccccc32)cc1` (stereo not drawn), the IC50 is 7.76 µM in experiment [4]; 3.63 µM on Cholinesterase; 11.5 µM at GABA transporter 4; 11 µM in [5]; 7.76 µM on GABA transporter 2. Besides, the inhibition is < 10% in experiment [1] and 47% against Beta-secretase 1 [7]. In addition, the Ki in [6] was 40.7 µM.
In the case of `CC(=O)NCCC(C(=O)NCc1ccccc1)N(C)CCOCCN1c2ccccc2Sc2ccccc21` (stereo not drawn), the IC50 in experiment [4] is 11.7 µM; at GABA transporter 4, 25.1 µM; in [5] it was 38 µM; on GABA transporter 2, 19.1 µM. For the same molecule, the inhibition is < 10% in experiment [1], 58% in experiment [2] and 30% against Beta-secretase 1 [7]. In addition, the Activity in experiment [8] was found to be 82%.
Consider `O=C(NCCCCCCCCNc1c2c(nc3cc(Cl)ccc13)CCCC2)c1ccc2nc(-c3ccc(Cl)cc3)c3c(c2c1)NCCC3`, for which the values for the inhibition in experiment [9] and in [10] were 80.8% and 72.1%, respectively.
As to `CN(CCC=C1c2ccccc2-c2ccccc21)C(CCO)C(=O)NCc1ccccc1` (stereo not drawn), the results for the IC50 at Cholinesterase and on Beta-secretase 1 [3] were 0.978 µM and 19.5 µM, respectively. The inhibition is 58.7% in experiment [9], < 10% in [1] and 15.8% in experiment [10].
In the case of `CN(CCC=C1c2ccccc2CCc2ccccc21)C(CCN)C(=O)NCc1ccccc1Cl` (stereo not drawn), the IC50 against Cholinesterase is 1.23 µM; on Beta-secretase 1 [3] it was 5.13 µM. This molecule also had an inhibition in [1] of 28%.
`CN(CCC=C1c2ccccc2CCc2ccccc21)C(CCN)C(=O)NCc1ccc(Cl)cc1` (stereo not drawn): the IC50 stood at 2.98 µM at Cholinesterase and 29 µM against Beta-secretase 1 [3]. In addition, the inhibition in [1] was found to be 33%.
Take `CC(O)CC(C(=O)NCc1ccccc1)N(C)CC/C=C/c1ccccc1-c1ccccc1` (racemic; form 2): the pIC50 in [4] (hek293) amounted to 4.87. Moreover, the IC50 on Cholinesterase is 3.71 µM; at GABA transporter 4, 41.7 µM; in experiment [5], 44.7 µM; at GABA transporter 2 it was 15.1 µM. The molecule further gave an inhibitory constant (Ki) in [6] of 24.5 µM.
`CN(CCOCCn1c2ccccc2c2ccccc21)C(CCO)C(=O)NCc1ccccc1Cl` (stereo not drawn): the IC50 is 13.2 µM in experiment [4]; 2.65 µM against Cholinesterase; 11.2 µM at GABA transporter 4; 23.4 µM in experiment [5]; 16.2 µM at GABA transporter 2. Further, the inhibition in experiment [1] is < 10%; on Beta-secretase 1 [7], 79%. Further, the Activity in experiment [8] came to 94%.
Take `CN(CCOCCn1c2ccccc2c2ccccc21)C(CCN)C(=O)NCc1ccc(F)cc1` (stereo not drawn): the IC50 in [4] was 17.4 µM; on Cholinesterase it was 0.345 µM; at GABA transporter 4, 18.2 µM; in [5], 33.9 µM; on GABA transporter 2, 20 µM. The inhibition is 95.3% in experiment [9], < 10% in experiment [1], 30.9% in experiment [10] and 78% at Beta-secretase 1 [7]. In addition, in experiment [8], the Activity amounted to 82%.
For the molecule `CN(CCOCCn1c2ccccc2c2ccccc21)C(CCO)C(=O)NCc1ccccc1` (stereo not drawn), the IC50 in experiment [4] is 14.8 µM; against Cholinesterase, 4.16 µM; at GABA transporter 4, 17.4 µM; in experiment [5] it was 38 µM; on GABA transporter 2, 26.9 µM. Besides, the inhibition in experiment [1] is < 10%; against Beta-secretase 1 [7] it was 64%. Moreover, the Activity in experiment [8] was 92%.
Regarding `CN(CC/C=C/c1ccccc1-c1ccccc1)C(CO)C(=O)NCc1ccc(F)cc1` (stereo not drawn), the IC50 in experiment [4] was 22.9 µM; against Cholinesterase, 0.917 µM; at GABA transporter 4, 30.2 µM; in experiment [5], 28.8 µM; on GABA transporter 2 it was 22.4 µM. In addition, the inhibition in experiment [1] was < 10%; on Beta-secretase 1 [7] it was 52%. In experiment [8], the Activity was determined as 94%.
With `CN(CCC=C1c2ccccc2-c2ccccc21)C(CCO)C(=O)NCc1ccc(F)cc1` (stereo not drawn), the IC50 at Cholinesterase came out at 0.978 µM. In addition, the inhibition in [9] is 77.1%; in [1] it was < 10%; in experiment [10], 21.5%; on Beta-secretase 1 [7], 66%.
As to `Cc1ccc(CNC(=O)C(CCO)N(C)CCOCCN2c3ccccc3Sc3ccccc32)cc1` (stereo not drawn), the IC50 in [4] was 8.51 µM; against Cholinesterase, 2.48 µM; at GABA transporter 4 it was 19.1 µM; in [5], 20.4 µM; at GABA transporter 2, 12.9 µM. Besides, the inhibition in experiment [1] was < 10%; at Beta-secretase 1 [7], 30%. The Activity in [8] stood at 85%.
With `CN(CCC=C1c2ccccc2CCc2ccccc21)C(CCN)C(=O)NCc1ccccc1` (stereo not drawn), the IC50 against Cholinesterase was found to be 1.47 µM; against Beta-secretase 1 [3], 6.68 µM. Moreover, the inhibition in experiment [1] came to 15%.
For `CC(=O)NCCC(C(=O)NCc1ccc(F)cc1)N(C)CCOCCN1c2ccccc2Sc2ccccc21` (stereo not drawn), the IC50 in experiment [4] is 10.7 µM; at Cholinesterase, 8.25 µM; on GABA transporter 4 it was 18.2 µM; in [5], 22.9 µM; at GABA transporter 2, 24.5 µM. The inhibition in experiment [1] was < 10%; at Beta-secretase 1 [7] it was 45%. Also, in [8], the Activity is 85%.
Regarding `CN(CC/C=C/c1ccccc1-c1ccccc1)C(CO)C(=O)NCc1ccccc1` (stereo not drawn), the IC50 in experiment [4] is 17 µM; on Cholinesterase it was 0.683 µM; at GABA transporter 4, 17.4 µM; in [5], 25.1 µM; on GABA transporter 2, 20 µM. Also, the inhibition in experiment [1] is < 10%; against Beta-secretase 1 [7] it was 42%. For the same molecule, the Activity in [8] is 67%.
Turning to `CN(CCOCCN1c2ccccc2Sc2ccccc21)C(CCO)C(=O)NCc1ccc(F)cc1` (stereo not drawn), the IC50 in experiment [4] was 11 µM; against Cholinesterase, 4.54 µM; on GABA transporter 4, 13.2 µM; in [5], 26.9 µM; on GABA transporter 2 it was 11.5 µM. Further, the inhibition is < 10% in experiment [1] and 42% on Beta-secretase 1 [7]. Further, the Activity in experiment [8] came out at 84%.
For `Cc1ccc(CNC(=O)C(CCN)N(C)CCC=C2c3ccccc3CCc3ccccc32)cc1` (stereo not drawn), the results for the IC50 against Cholinesterase and on Beta-secretase 1 [3] were 2.35 µM and 4.03 µM, respectively. For the same molecule, the inhibition in [1] was found to be 15%.
The corresponding values for `CN(CCC=C1c2ccccc2CCc2ccccc21)C(CCN)C(=O)NCc1ccc(F)cc1` (stereo not drawn) are 1.21 µM, 4.88 µM and 21%.
